Assay results: patent US12421254B2, “KRAS modulators and uses thereof” (Quanta Therapeutics, Inc., priority 2023, dated 2025)

Columns and labels:
[1] = target: GST-tagged KRAS-G12V (2-169) (Homo sapiens, UniProt P01116, G12V); experiment: Nucleotide exchange assay (NEA), SOS-mediated, HTRF, KRAS G12V; assay type: biochemical; details: Table 4; IC50 extracted at 90 min; 80 nM SOS
How it was run: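 GST-KRAS-G12V (2-169), 0.25 nM, pre-incubated 1 h at RT with compound, then SOS1cat (564-1049) 80 nM and GTP-DY-647P1 150 nM added in HEPES pH 7.3 buffer with MgCl2 and DTT. HTRF via anti-GST Tb cryptate read over 90 min; IC50 from 4-parameter fit at 90 min, blanked to no-SOS reactions.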

[2] = target: GST-tagged KRAS-G12D (2-169) (Homo sapiens, UniProt P01116, G12D); experiment: Nucleotide exchange assay (NEA), SOS-mediated, HTRF, KRAS G12D; assay type: biochemical; details: Table 4; IC50 extracted at 30 min; 20 nM SOScat; read-out: NEA G12D IC50
How it was run: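 Compound preincubated 1 h at RT with 0.25 nM GST-KRAS-G12D (2-169) and anti-GST Tb donor, then 20 nM SOS1cat (564-1049) and 150 nM GTP-DY-647P1 added; pH 7.3 HEPES buffer with MgCl2 and DTT. HTRF monitored at RT; % inhibition versus DMSO and no-SOS blank, 4-parameter IC50 taken at 30 min.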

Sequence of GST-tagged KRAS-G12V (2-169) (P01116 2-169 isoform P01116-2 G12V): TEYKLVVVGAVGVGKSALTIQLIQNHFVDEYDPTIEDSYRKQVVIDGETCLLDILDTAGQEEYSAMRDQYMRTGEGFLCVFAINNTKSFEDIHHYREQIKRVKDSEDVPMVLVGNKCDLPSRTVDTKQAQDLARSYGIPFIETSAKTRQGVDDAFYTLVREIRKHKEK
Sequence of GST-tagged KRAS-G12D (2-169) (P01116 2-169 isoform P01116-2 G12D): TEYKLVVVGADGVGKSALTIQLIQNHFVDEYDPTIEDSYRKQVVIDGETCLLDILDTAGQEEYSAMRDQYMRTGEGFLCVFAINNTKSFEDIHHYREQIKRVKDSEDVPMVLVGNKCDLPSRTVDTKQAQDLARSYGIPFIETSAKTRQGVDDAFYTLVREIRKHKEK

SMILES	IC50 [1] [nM]	IC50 [2] [nM]
N#Cc1c(N)sc2c1C1(CN(c3nc(OC[C@@]45CCCN4C[C@H](F)C5)nc(N4C5CCC4CC(=O)NC5)n3)C1)SC2 (stereo partly drawn) [Compound 271, 2-amino-1′-[4-[[(2R,8S)-2-fluoro-1,2,3,5,6,7-hexahydropyrrolizin-8-yl]methoxy]-6-(4-oxo-3,9-diazabicyclo[4.2.1]nonan-9-yl)-1,3,5-triazin-2-yl]spiro[6H-thieno[3,4-b]thiophene-4,3′-azetidine]-3-carbonitrile]	100 to 1000	1000 to 20000
N#Cc1c(N)sc2c1C1(CN(c3nc(OC[C@@]45CCCN4C[C@H](F)C5)nc(N(CCN)C4(C#N)CC4)n3)C1)SC2 [Compound 272, 2-amino-1′-[4-[2-aminoethyl-(1-cyanocyclopropyl)amino]-6-[[(2R,8S)-2-fluoro-1,2,3,5,6,7-hexahydropyrrolizin-8-yl]methoxy]-1,3,5-triazin-2-yl]spiro[6H-thieno[3,4-b]thiophene-4,3′-azetidine]-3-carbonitrile; formic acid]	10 to 100	< 10
N#Cc1c(N)sc2c1C1(CN(c3nc(OC[C@@]45CCCN4C[C@H](F)C5)nc(N4C5CCC4CC(=O)C5)n3)C1)SC2 [Compound 273, 2-amino-1′-[4-[[(2R,8S)-2-fluoro-1,2,3,5,6,7-hexahydropyrrolizin-8-yl]methoxy]-6-(3-oxo-8-azabicyclo[3.2.1]octan-8-yl)-1,3,5-triazin-2-yl]spiro[6H-thieno[3,4-b]thiophene-4,3′-azetidine]-3-carbonitrile]	10 to 100	100 to 1000
N#Cc1c(N)sc2c1C1(CN(c3nc(OC[C@@]45CCCN4C[C@H](F)C5)nc(N4[C@@H]5CC[C@H]4C[C@H](O)C5)n3)C1)SC2 [Compound 275, 2-amino-1′-[4-[[(2R,8S)-2-fluoro-1,2,3,5,6,7-hexahydropyrrolizin-8-yl]methoxy]-6-[(1S,5R)-3-hydroxy-8-azabicyclo[3.2.1]octan-8-yl]-1,3,5-triazin-2-yl]spiro[6H-thieno[3,4-b]thiophene-4,3′-azetidine]-3-carbonitrile]	100 to 1000	100 to 1000
N#Cc1c(N)sc2c1C1(CN(c3nc(OC[C@@]45CCCN4C[C@H](F)C5)nc(N4C5CNCC4CC(=O)C5)n3)C1)SC2 [Compound 276, 2-amino-1′-[4-[[(2R,8S)-2-fluoro-1,2,3,5,6,7-hexahydropyrrolizin-8-yl]methoxy]-6-(7-oxo-3,9-diazabicyclo[3.3.1]nonan-9-yl)-1,3,5-triazin-2-yl]spiro[6H-thieno[3,4-b]thiophene-4,3′-azetidine]-3-carbonitrile]	10 to 100	100 to 1000
N#Cc1c(N)sc2c1C1(CN(c3nc(OC[C@@]45CCCN4C[C@H](F)C5)nc(N4CC5CC(=O)CC(C4)N5)n3)C1)SC2 [Compound 277, 2-amino-1′-[4-[[(2R,8S)-2-fluoro-1,2,3,5,6,7-hexahydropyrrolizin-8-yl]methoxy]-6-(7-oxo-3,9-diazabicyclo[3.3.1]nonan-3-yl)-1,3,5-triazin-2-yl]spiro[6H-thieno[3,4-b]thiophene-4,3′-azetidine]-3-carbonitrile]	< 10	10 to 100
C[C@H](c1cccnc1N)N(C)c1nc(OC[C@@]23CCCN2C[C@H](F)C3)nc(N2CC3(CCc4cnn(C)c43)C2)n1 [Compound 278, N-[(1R)-1-(2-amino-3-pyridyl)ethyl]-4-[[(2R,8S)-2-fluoro-1,2,3,5,6,7-hexahydropyrrolizin-8-yl]methoxy]-N-methyl-6-(1-methylspiro[4,5-dihydrocyclopenta[d]pyrazole-6,3′-azetidine]-1′-yl)-1,3,5-triazin-2-amine]	1000 to 20000	1000 to 20000
CN(C)CC1(COc2nc(N3CCOCC(C)(O)C3)nc(N3CC4(C3)SCc3sc(N)c(C#N)c34)n2)CC1(F)F (stereo not shown) [Compound 281, 2-amino-1′-[4-[[1-[(dimethylamino)methyl]-2,2-difluoro-cyclopropyl]methoxy]-6-(6-hydroxy-6-methyl-1,4-oxazepan-4-yl)-1,3,5-triazin-2-yl]spiro[6H-thieno[3,4-b]thiophene-4,3′-azetidine]-3-carbonitrile]	< 10	< 10
